Experimental data from US20260130395A1, “Water Dispersible Botanical Compositions” (Aquila Black Limited, priority 2021, published 2026).

Columns and labels:
Type in all cases: physicochemical
[1] = Stability of cannabinoid compounds and Vitamin E components in Beverage 1 (AB White) by LCMSMS; details: for storage time after which some slight degradation is shown: monitored 570 days
[2] = Stability of cannabinoid compounds and Vitamin E components in Beverage 2 (AB Red) by LCMSMS; details: monitored 570 days
[3] = Stability of cannabinoid entourage and Vitamin E components of the powder concentrate by LCMSMS; details: for Stability of Plant-Derived Cannabinoid Compounds in Powder Concentrate: powder stored at 21-25° C.
Procedure: At each time period, 0.05 g of powder was dissolved in 10 ml-15 of ethanol, diluted to fall within the analytical range, and injected into the LCMSMS for analysis.

C=C(C)[C@@H]1CCC(C)=C[C@H]1c1c(O)cc(CCCCC)cc1O [CBD, cannabidiol, reference compound]
Stability of Plant-Derived Cannabinoid Compounds in AB White, 8° C. ([1]; AB White stored at 8° C., 0 days): 28.5 µg/mL
Stability of Plant-Derived Cannabinoid Compounds in AB White, 8° C. ([1]; AB White stored at 8° C., 1 days): 27.65 µg/mL
Stability of Plant-Derived Cannabinoid Compounds in AB White, 8° C. ([1]; AB White stored at 8° C., 2 days): 27.67 µg/mL
Stability of Plant-Derived Cannabinoid Compounds in AB White, 8° C. ([1]; AB White stored at 8° C., 3 days): 27.96 µg/mL
Stability of Plant-Derived Cannabinoid Compounds in AB White, 8° C. ([1]; AB White stored at 8° C., 5 days): 28.61 µg/mL
Stability of Plant-Derived Cannabinoid Compounds in AB White, 8° C. ([1]; AB White stored at 8° C., 8 days): 28.47 µg/mL
Stability of Plant-Derived Cannabinoid Compounds in AB White, 8° C. ([1]; AB White stored at 8° C., 9 days): 28.44 µg/mL
Stability of Plant-Derived Cannabinoid Compounds in AB White, 8° C. ([1]; AB White stored at 8° C., 10 days): 27.87 µg/mL
Stability of Plant-Derived Cannabinoid Compounds in AB White, 8° C. ([1]; AB White stored at 8° C., 11 days): 28.13 µg/mL
Stability of Plant-Derived Cannabinoid Compounds in AB White, 8° C. ([1]; AB White stored at 8° C., 12 days): 28.10 µg/mL
Stability of Plant-Derived Cannabinoid Compounds in AB White, 8° C. ([1]; AB White stored at 8° C., 15 days): 27.99 µg/mL
Stability of Plant-Derived Cannabinoid Compounds in AB White, 8° C. ([1]; AB White stored at 8° C., 16 days): 28.04 µg/mL
Stability of Plant-Derived Cannabinoid Compounds in AB White, 8° C. ([1]; AB White stored at 8° C., 17 days): 27.84 µg/mL
Stability of Plant-Derived Cannabinoid Compounds in AB White, 8° C. ([1]; AB White stored at 8° C., 18 days): 27.87 µg/mL
Stability of Plant-Derived Cannabinoid Compounds in AB White, 8° C. ([1]; AB White stored at 8° C., 19 days): 28.36 µg/mL
Stability of Plant-Derived Cannabinoid Compounds in AB White, 8° C. ([1]; AB White stored at 8° C., 22 days): 28.50 µg/mL
Stability of Plant-Derived Cannabinoid Compounds in AB White, 8° C. ([1]; AB White stored at 8° C., 23 days): 27.67 µg/mL
Stability of Plant-Derived Cannabinoid Compounds in AB White, 8° C. ([1]; AB White stored at 8° C., 24 days): 28.44 µg/mL
Stability of Plant-Derived Cannabinoid Compounds in AB White, 8° C. ([1]; AB White stored at 8° C., 25 days): 27.65 µg/mL
Stability of Plant-Derived Cannabinoid Compounds in AB White, 8° C. ([1]; AB White stored at 8° C., 26 days): 27.73 µg/mL
Stability of Plant-Derived Cannabinoid Compounds in AB White, 8° C. ([1]; AB White stored at 8° C., 29 days): 28.24 µg/mL
Stability of Plant-Derived Cannabinoid Compounds in AB White, 8° C. ([1]; AB White stored at 8° C., 30 days): 27.93 µg/mL
Stability of Plant-Derived Cannabinoid Compounds in AB White, 8° C. ([1]; AB White stored at 8° C., 60 days): 27.73 µg/mL
Stability of Plant-Derived Cannabinoid Compounds in AB White, 8° C. ([1]; AB White stored at 8° C., 90 days): 27.87 µg/mL
Stability of Plant-Derived Cannabinoid Compounds in AB White, 8° C. ([1]; AB White stored at 8° C., 120 days): 27.39 µg/mL
Stability of Plant-Derived Cannabinoid Compounds in AB White, 8° C. ([1]; AB White stored at 8° C., 150 days): 28.59 µg/mL
Stability of Plant-Derived Cannabinoid Compounds in AB White, 8° C. ([1]; AB White stored at 8° C., 180 days): 27.59 µg/mL
Stability of Plant-Derived Cannabinoid Compounds in AB White, 8° C. ([1]; AB White stored at 8° C., 210 days): 27.76 µg/mL
Stability of Plant-Derived Cannabinoid Compounds in AB White, 8° C. ([1]; AB White stored at 8° C., 240 days): 27.79 µg/mL
Stability of Plant-Derived Cannabinoid Compounds in AB White, 8° C. ([1]; AB White stored at 8° C., 270 days): 28.07 µg/mL
Stability of Plant-Derived Cannabinoid Compounds in AB White, 8° C. ([1]; AB White stored at 8° C., 300 days): 27.96 µg/mL
Stability of Plant-Derived Cannabinoid Compounds in AB White, 8° C. ([1]; AB White stored at 8° C., 330 days): 27.33 µg/mL
Stability of Plant-Derived Cannabinoid Compounds in AB White, 8° C. ([1]; AB White stored at 8° C., 360 days): 27.79 µg/mL
Stability of Plant-Derived Cannabinoid Compounds in AB White, 8° C. ([1]; AB White stored at 8° C., 390 days): 27.50 µg/mL
Stability of Plant-Derived Cannabinoid Compounds in AB White, 8° C. ([1]; AB White stored at 8° C., 420 days): 27.50 µg/mL
Stability of Plant-Derived Cannabinoid Compounds in AB White, 8° C. ([1]; AB White stored at 8° C., 480 days): 27.13 µg/mL
Stability of Plant-Derived Cannabinoid Compounds in AB White, 8° C. ([1]; AB White stored at 8° C., 510 days): 26.48 µg/mL
Stability of Plant-Derived Cannabinoid Compounds in AB White, 8° C. ([1]; AB White stored at 8° C., 540 days): 26.51 µg/mL
Stability of Plant-Derived Cannabinoid Compounds in AB White, 8° C. ([1]; AB White stored at 8° C., 570 days): 26.22 µg/mL
storage time after which some slight degradation is shown ([1]; AB White stored at 8° C.): > 480 days
storage time after which some slight degradation is shown ([1]; AB White stored at 21-25° C.): > 390 days
storage time after which some slight degradation is shown ([2]; AB Red stored at 8° C.): > 420 days
storage time after which some slight degradation is shown ([2]; AB Red stored at 21-25° C.): > 390 days
degradation over the entire period (in words) ([3]; powder concentrate stored at 21-25° C., 570 days): no significant degradation
Stability of Plant-Derived Cannabinoid Compounds in Powder Concentrate ([3]; 0 days): 5.85 mg/g powder
Stability of Plant-Derived Cannabinoid Compounds in Powder Concentrate ([3]; 1 days): 5.69 mg/g powder
Stability of Plant-Derived Cannabinoid Compounds in Powder Concentrate ([3]; 2 days): 5.76 mg/g powder
Stability of Plant-Derived Cannabinoid Compounds in Powder Concentrate ([3]; 3 days): 5.8 mg/g powder
Stability of Plant-Derived Cannabinoid Compounds in Powder Concentrate ([3]; 5 days): 5.84 mg/g powder
Stability of Plant-Derived Cannabinoid Compounds in Powder Concentrate ([3]; 8 days): 5.91 mg/g powder
Stability of Plant-Derived Cannabinoid Compounds in Powder Concentrate ([3]; 9 days): 6.01 mg/g powder
Stability of Plant-Derived Cannabinoid Compounds in Powder Concentrate ([3]; 10 days): 5.69 mg/g powder
Stability of Plant-Derived Cannabinoid Compounds in Powder Concentrate ([3]; 11 days): 6.00 mg/g powder
Stability of Plant-Derived Cannabinoid Compounds in Powder Concentrate ([3]; 12 days): 5.76 mg/g powder
Stability of Plant-Derived Cannabinoid Compounds in Powder Concentrate ([3]; 15 days): 5.85 mg/g powder
Stability of Plant-Derived Cannabinoid Compounds in Powder Concentrate ([3]; 16 days): 5.97 mg/g powder
Stability of Plant-Derived Cannabinoid Compounds in Powder Concentrate ([3]; 17 days): 5.97 mg/g powder
Stability of Plant-Derived Cannabinoid Compounds in Powder Concentrate ([3]; 18 days): 6.01 mg/g powder
Stability of Plant-Derived Cannabinoid Compounds in Powder Concentrate ([3]; 19 days): 5.74 mg/g powder
Stability of Plant-Derived Cannabinoid Compounds in Powder Concentrate ([3]; 22 days): 5.84 mg/g powder
Stability of Plant-Derived Cannabinoid Compounds in Powder Concentrate ([3]; 23 days): 6.10 mg/g powder
Stability of Plant-Derived Cannabinoid Compounds in Powder Concentrate ([3]; 24 days): 5.89 mg/g powder
Stability of Plant-Derived Cannabinoid Compounds in Powder Concentrate ([3]; 25 days): 6.01 mg/g powder
Stability of Plant-Derived Cannabinoid Compounds in Powder Concentrate ([3]; 26 days): 6.00 mg/g powder
Stability of Plant-Derived Cannabinoid Compounds in Powder Concentrate ([3]; 29 days): 5.97 mg/g powder
Stability of Plant-Derived Cannabinoid Compounds in Powder Concentrate ([3]; 30 days): 5.94 mg/g powder
Stability of Plant-Derived Cannabinoid Compounds in Powder Concentrate ([3]; 60 days): 5.66 mg/g powder
Stability of Plant-Derived Cannabinoid Compounds in Powder Concentrate ([3]; 90 days): 6.00 mg/g powder
Stability of Plant-Derived Cannabinoid Compounds in Powder Concentrate ([3]; 120 days): 5.80 mg/g powder
Stability of Plant-Derived Cannabinoid Compounds in Powder Concentrate ([3]; 150 days): 5.65 mg/g powder
Stability of Plant-Derived Cannabinoid Compounds in Powder Concentrate ([3]; 180 days): 5.93 mg/g powder
Stability of Plant-Derived Cannabinoid Compounds in Powder Concentrate ([3]; 210 days): 5.83 mg/g powder
Stability of Plant-Derived Cannabinoid Compounds in Powder Concentrate ([3]; 240 days): 5.98 mg/g powder
Stability of Plant-Derived Cannabinoid Compounds in Powder Concentrate ([3]; 270 days): 5.72 mg/g powder
Stability of Plant-Derived Cannabinoid Compounds in Powder Concentrate ([3]; 300 days): 5.84 mg/g powder
Stability of Plant-Derived Cannabinoid Compounds in Powder Concentrate ([3]; 330 days): 6.01 mg/g powder
Stability of Plant-Derived Cannabinoid Compounds in Powder Concentrate ([3]; 360 days): 5.97 mg/g powder
Stability of Plant-Derived Cannabinoid Compounds in Powder Concentrate ([3]; 390 days): 5.93 mg/g powder
Stability of Plant-Derived Cannabinoid Compounds in Powder Concentrate ([3]; 420 days): 5.94 mg/g powder
Stability of Plant-Derived Cannabinoid Compounds in Powder Concentrate ([3]; 450 days): 5.65 mg/g powder
Stability of Plant-Derived Cannabinoid Compounds in Powder Concentrate ([3]; 480 days): 5.66 mg/g powder
Stability of Plant-Derived Cannabinoid Compounds in Powder Concentrate ([3]; 510 days): 6.01 mg/g powder
Stability of Plant-Derived Cannabinoid Compounds in Powder Concentrate ([3]; 540 days): 5.81 mg/g powder
Stability of Plant-Derived Cannabinoid Compounds in Powder Concentrate ([3]; 570 days): 5.85 mg/g powder
